The text below walks through data of article PMC9101838, “Novel CFTR Activator Cact-3 Ameliorates Ocular Surface Dysfunctions in Scopolamine-Induced Dry Eye Mice” (International Journal of Molecular Sciences, 2022).

This assay concerns the target T1, Cystic fibrosis transmembrane conductance regulator (CFTR) (Homo sapiens, UniProt P13569).
T1 construct: human WT-CFTR
The assay is described as follows: apical membrane current in FRT cells expressing human WT-CFTR; whole-cell patch clamp in CHO-K1 cells; no change in cAMP. Format: cell-based.

T1 sequence (P13569 whole entry): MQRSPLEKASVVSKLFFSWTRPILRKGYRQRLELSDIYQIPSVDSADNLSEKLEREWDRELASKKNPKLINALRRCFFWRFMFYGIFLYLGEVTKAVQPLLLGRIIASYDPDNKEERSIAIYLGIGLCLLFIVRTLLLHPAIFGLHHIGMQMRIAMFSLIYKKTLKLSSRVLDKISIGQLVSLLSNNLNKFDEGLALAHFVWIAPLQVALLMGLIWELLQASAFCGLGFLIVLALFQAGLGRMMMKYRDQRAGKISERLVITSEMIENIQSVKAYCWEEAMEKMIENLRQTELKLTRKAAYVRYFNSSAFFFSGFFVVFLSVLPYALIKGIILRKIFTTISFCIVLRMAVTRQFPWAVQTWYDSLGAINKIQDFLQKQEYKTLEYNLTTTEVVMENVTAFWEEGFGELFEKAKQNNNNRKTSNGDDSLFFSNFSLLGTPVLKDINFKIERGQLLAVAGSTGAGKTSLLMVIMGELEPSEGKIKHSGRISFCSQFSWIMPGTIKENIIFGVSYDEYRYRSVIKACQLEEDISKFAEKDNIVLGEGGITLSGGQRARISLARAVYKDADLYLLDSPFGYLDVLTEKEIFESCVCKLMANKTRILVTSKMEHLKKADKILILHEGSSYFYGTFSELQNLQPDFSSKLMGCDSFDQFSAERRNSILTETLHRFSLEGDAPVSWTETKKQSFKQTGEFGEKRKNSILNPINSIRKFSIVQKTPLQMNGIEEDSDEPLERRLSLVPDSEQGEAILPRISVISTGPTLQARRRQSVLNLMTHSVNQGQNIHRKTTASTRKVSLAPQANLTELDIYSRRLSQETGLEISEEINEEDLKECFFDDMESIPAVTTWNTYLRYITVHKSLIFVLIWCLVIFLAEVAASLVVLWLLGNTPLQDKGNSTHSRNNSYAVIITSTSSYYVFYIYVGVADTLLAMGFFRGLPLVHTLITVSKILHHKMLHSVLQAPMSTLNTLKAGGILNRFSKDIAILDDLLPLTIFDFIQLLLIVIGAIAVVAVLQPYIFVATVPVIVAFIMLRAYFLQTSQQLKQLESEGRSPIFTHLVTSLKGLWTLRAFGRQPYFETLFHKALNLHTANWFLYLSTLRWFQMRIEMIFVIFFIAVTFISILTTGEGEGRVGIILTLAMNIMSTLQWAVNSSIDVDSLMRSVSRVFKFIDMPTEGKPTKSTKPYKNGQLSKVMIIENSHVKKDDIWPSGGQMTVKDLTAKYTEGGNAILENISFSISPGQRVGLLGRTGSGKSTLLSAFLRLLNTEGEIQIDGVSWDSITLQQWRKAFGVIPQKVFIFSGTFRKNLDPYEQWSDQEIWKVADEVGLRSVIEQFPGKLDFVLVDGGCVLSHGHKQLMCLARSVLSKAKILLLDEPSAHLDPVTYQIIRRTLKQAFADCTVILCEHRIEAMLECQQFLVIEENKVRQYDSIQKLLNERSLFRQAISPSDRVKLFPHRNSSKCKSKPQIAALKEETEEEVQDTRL

`CCOc1ccc(NC(=O)c2cc3nccc(-c4ccc(OC)c(OC)c4)n3n2)cc1` [Cact-3, 7-(3,4-dimethoxyphenyl)-N-(4-ethoxyphenyl)pyrazolo [1,5-α]pyrimidine-2-carboxamide] registered an EC50 of 0.255 µM.
